From patent US20230081390A1, “INHIBITORS OF RAF KINASES” (Kinnate Biopharma Inc., priority 2019, published 2023)

Columns and labels:
human BRAF = human BRAF (Homo sapiens, UniProt P15056); assay: Protein kinase assay (33P-ATP filter binding), human BRAF, 10-dose IC50; type: biochemical; conditions: MEK1 (K97R) substrate 1 micromolar, ATP 25 micromolar, read-out: B-RAF IC50
Protocol: Protein kinase assay: Assay platform was used to measure kinase/inhibitor interactions as described previously (Anastassiadis et al., 2011). In brief, for each reaction, kinase and substrate were mixed in a buffer containing 20 mM HEPES (pH 7.5), 10 mM MgCl2, 1 mM EGTA, 0.02% Brij35, 0.02 mg/mL BSA, 0.1 mM Na3VO4, 2 mM DTT, and […]. All compounds were solubilized in DMSO. Compounds were then added to each reaction mixture via acoustic dispense using an ECHO 550 nanoliter dispenser. For human RAF1 testing, human MEK1 (K97R) was used as a substrate at a concentration of 3 micromolar, with a final ATP concentration of 10 micromolar. For human BRAF testing, human MEK1 (K97R) was used as a substrate at 1 micromolar concentration, with a final ATP concentration of 25 micromolar. […] After a 20-min incubation, ATP (Sigma-Aldrich, St. Louis, Mo. 63178) and [g33P] ATP (specific activity 10 microCi/microliter) purchased at PerkinElmer (Boston, Mass., 02118 Cat #BLU 003H250UC) were added at a final total concentration of […]. Reactions were carried out at room temperature for 2 hr and spotted onto P81 ion exchange cellulose chromatography paper (Reaction Biology). Filter paper was washed in 0.75% phosphoric acid to remove unincorporated ATP. The percent remaining kinase activity relative to a vehicle-containing (DMSO) kinase reaction was calculated for each kinase/inhibitor pair. IC50 values were calculated using Prism 5 (GraphPad).

human RAF1 = human RAF1 (Homo sapiens, UniProt P04049); assay: Protein kinase assay (33P-ATP filter binding), human RAF1, 10-dose IC50; type: biochemical; conditions: MEK1 (K97R) substrate 3 micromolar, ATP 10 micromolar, read-out: RAF-1 IC50
Sequence of human RAF1 (P04049 whole entry): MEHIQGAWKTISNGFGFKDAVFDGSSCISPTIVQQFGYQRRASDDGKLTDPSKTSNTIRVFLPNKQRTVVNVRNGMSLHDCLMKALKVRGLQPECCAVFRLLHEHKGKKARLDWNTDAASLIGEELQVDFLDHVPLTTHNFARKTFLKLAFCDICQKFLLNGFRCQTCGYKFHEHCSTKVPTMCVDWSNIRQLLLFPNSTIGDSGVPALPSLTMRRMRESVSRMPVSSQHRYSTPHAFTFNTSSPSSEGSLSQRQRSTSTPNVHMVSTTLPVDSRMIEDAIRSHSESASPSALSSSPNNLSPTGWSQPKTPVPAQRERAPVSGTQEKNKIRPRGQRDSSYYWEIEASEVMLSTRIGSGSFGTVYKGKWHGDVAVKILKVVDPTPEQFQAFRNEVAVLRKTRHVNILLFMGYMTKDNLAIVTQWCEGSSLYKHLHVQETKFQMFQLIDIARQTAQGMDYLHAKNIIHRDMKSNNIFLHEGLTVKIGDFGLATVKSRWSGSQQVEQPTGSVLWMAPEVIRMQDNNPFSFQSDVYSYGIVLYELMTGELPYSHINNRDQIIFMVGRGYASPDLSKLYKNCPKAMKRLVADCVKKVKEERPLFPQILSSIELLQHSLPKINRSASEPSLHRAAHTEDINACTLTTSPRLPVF
In short: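 Radiometric filter-binding format: 10 µM ATP, 3 µM MEK1 (K97R) as substrate for human RAF1, 2 hr at room temperature in 20 mM HEPES pH 7.5 with 10 mM MgCl2. Compounds were dispensed acoustically from DMSO. IC50 came from percent kinase activity relative to vehicle over a 10-dose series.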

Sequence of human BRAF (P15056 whole entry): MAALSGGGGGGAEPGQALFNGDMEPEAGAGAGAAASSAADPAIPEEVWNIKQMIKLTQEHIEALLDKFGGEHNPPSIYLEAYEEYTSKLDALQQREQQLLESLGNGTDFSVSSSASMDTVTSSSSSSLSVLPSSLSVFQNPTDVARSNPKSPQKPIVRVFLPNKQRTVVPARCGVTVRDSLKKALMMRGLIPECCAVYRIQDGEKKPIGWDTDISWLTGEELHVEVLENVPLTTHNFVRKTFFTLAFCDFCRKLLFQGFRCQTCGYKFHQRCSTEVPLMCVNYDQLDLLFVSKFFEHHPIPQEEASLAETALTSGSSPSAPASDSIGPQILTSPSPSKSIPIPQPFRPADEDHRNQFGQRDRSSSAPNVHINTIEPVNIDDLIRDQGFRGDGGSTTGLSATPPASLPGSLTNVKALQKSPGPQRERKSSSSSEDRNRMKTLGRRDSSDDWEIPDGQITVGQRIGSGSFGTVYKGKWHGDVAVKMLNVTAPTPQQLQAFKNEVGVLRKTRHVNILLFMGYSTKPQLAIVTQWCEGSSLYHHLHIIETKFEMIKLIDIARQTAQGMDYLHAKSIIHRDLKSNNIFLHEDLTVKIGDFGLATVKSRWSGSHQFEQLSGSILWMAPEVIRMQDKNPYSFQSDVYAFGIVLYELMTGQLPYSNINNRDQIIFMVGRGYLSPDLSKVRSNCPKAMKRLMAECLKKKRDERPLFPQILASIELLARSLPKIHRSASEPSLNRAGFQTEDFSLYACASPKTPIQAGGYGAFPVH

Structure (SMILES) | IC50 (human BRAF) [nM] | IC50 (human RAF1) [nM]
Cc1cc(F)c(NC(=O)N2CC[C@@H](C(F)(F)F)C2)cc1-c1cc(OCCO)nc(N2CCOCC2)c1 [Example 1, (R)-N-(2-fluoro-5-(2-(2-hydroxyethoxy)-6-morpholinopyridin-4-yl)-4-methylphenyl)-3-(trifluoromethyl)pyrrolidine-1-carboxamide] | 10 to 100 | < 10
Cc1cc(F)c(NC(=O)N2CCC(C(C)(C)C)C2)cc1-c1cc(OCCO)nc(N2CCOCC2)c1 (racemic) [Example 5, (RS)-3-(tert-butyl)-N-(2-fluoro-5-(2-(2-hydroxyethoxy)-6-morpholinopyridin-4-yl)-4-methylphenyl)pyrrolidine-1-carboxamide] | 10 to 100 | < 10
Cc1cc(F)c(NC(=O)N2CCOC(C(C)(C)C)C2)cc1-c1cc(OCCO)nc(N2CCOCC2)c1 (centres unmarked) [Example 9, 2-(tert-butyl)-N-(2-fluoro-5-(2-(2-hydroxyethoxy)-6-morpholinopyridin-4-yl)-4-methylphenyl)morpholine-4-carboxamide] | 10 to 100 | < 10
Cc1cc(F)c(NC(=O)N2CCOC(C(F)(F)F)C2)cc1-c1cc(OCCO)nc(N2CCOCC2)c1 (racemic) [Example 10, (RS)-N-(2-fluoro-5-(2-(2-hydroxyethoxy)-6-morpholinopyridin-4-yl)-4-methylphenyl)-2-(trifluoromethyl)morpholine-4-carboxamide] | 10 to 100 | < 10
Cc1ccc(NC(=O)N2CC[C@H](OC(F)(F)F)C2)cc1-c1cc(OC[C@H](O)CO)nc(N2CCOCC2)c1 [Example 142, (3S)-N-(3-[2-[(2R)-2,3-dihydroxypropoxy]-6-(morpholin-4-yl)pyridin-4-yl]-4-methylphenyl)-3-(trifluoromethoxy)pyrrolidine-1-carboxamide] |  | < 10
Cc1cc(F)c(NC(=O)N2CCC(C(F)(F)F)C2C)cc1-c1cc(OCCO)nc(N2CCOCC2)c1 (single isomer, unassigned) [Example 64, N-[2-fluoro-5-[2-(2-hydroxyethoxy)-6-(morpholin-4-yl)pyridin-4-yl]-4-methylphenyl]-2-methyl-3-(trifluoromethyl)pyrrolidine-1-carboxamide] |  | 100 to 1000
Cc1cc(F)c(NC(=O)N2CC[C@@H](C(C)(F)F)C2)cc1-c1cc(OCCO)nc(N2CCOCC2)c1 (single isomer, unassigned) [Example 34] |  | < 10
Cc1ccc(NC(=O)N2CCC(CC(F)(F)F)C2)cc1-c1cc(O[C@H]2CCOC2)nc(N2CCOCC2)c1 (stereo partly drawn) [Example 188, N-(4-methyl-3-(2-morpholino-6-(((S)-tetrahydrofuran-3-yl)oxy)pyridin-4-yl)phenyl)-3-(2,2,2-trifluoroethyl)pyrrolidine-1-carboxamide] |  | < 10
Cc1ccc(NC(=O)N2CC[C@@H](CC(F)(F)F)C2)cc1-c1cc(OC[C@@H](C)O)nc(N2CCOC3CC32)c1 (stereo partly drawn) [Example 230, (3S)-N-(3-(2-(2-oxa-5-azabicyclo[4.1.0]heptan-5-yl)-6-((R)-2-hydroxypropoxy)pyridin-4-yl)-4-methylphenyl)-3-(2,2,2-trifluoroethyl)pyrrolidine-1-carboxamide] |  | < 10
CC(C#N)=C1CCN(C(=O)Nc2cc(-c3cc(OCCO)nc(N4CCOCC4)c3)c(C)cc2F)C1 (stereo in doubt) [Example 97, (3E)-3-(1-cyanoethylidene)-N-[2-fluoro-5-[2-(2-hydroxyethoxy)-6-(morpholin-4-yl)pyridin-4-yl]-4-methylphenyl]pyrrolidine-1-carboxamide] |  | < 10
Cc1ccc(NC(=O)N2CC[C@H](OC(F)(F)F)C2)cc1-c1cc(OC(C)CO)nc(N2CCOCC2)c1 (stereo in doubt) [Example 153, (3S)-N-[3-(2-[[(2R)-1-hydroxypropan-2-yl]oxy]-6-(morpholin-4-yl)pyridin-4-yl)-4-methylphenyl]-3-(trifluoromethoxy)pyrrolidine-1-carboxamide] |  | < 10
Cc1cc(F)c(NC(=O)N2CCC3(CCC3(F)F)C2)cc1-c1cc(OCCO)nc(N2CCOCC2)c1 (single isomer, unassigned) [Example 91, 1,1-difluoro-N-[2-fluoro-5-[2-(2-hydroxyethoxy)-6-(morpholin-4-yl)pyridin-4-yl]-4-methylphenyl]-6-azaspiro[3.4]octane-6-carboxamide] |  | < 10
Cc1cc(F)c(NC(=O)N2CCC(C(F)(F)C(F)(F)F)C2)cc1-c1cc(OCCO)nc(N2CCOCC2)c1 (single isomer, unassigned) [Example 85] |  | < 10
Cc1cc(F)c(NC(=O)N2CC3(C(F)(F)F)CC2CO3)cc1-c1cc(OCCO)nc(N2CCOCC2)c1 (centres unmarked) [Example 107, N-[2-fluoro-5-[2-(2-hydroxyethoxy)-6-(morpholin-4-yl)pyridin-4-yl]-4-methylphenyl]-1-(trifluoromethyl)-2-oxa-5-azabicyclo[2.2.1]heptane-5-carboxamide] |  | < 10
Cc1cc(F)c(NC(=O)N2C[C@H](N)C[C@H](C(F)(F)F)C2)cc1-c1cc(OCCO)nc(N2CCOCC2)c1 [Example 55, (3R,5S)-3-amino-N-[2-fluoro-5-[2-(2-hydroxyethoxy)-6-(morpholin-4-yl)pyridin-4-yl]-4-methylphenyl]-5-(trifluoromethyl)piperidine-1-carboxamide] |  | < 10

Further lines, results first:

IC50 (human BRAF) [nM] | IC50 (human RAF1) [nM] | Structure (SMILES)
 | < 10 | Cc1ccc(NC(=O)N2CC[C@@H](CC(F)(F)F)C2)cc1-c1cc(OCC2(O)CC2)nc(N2CCOCC2)c1 [Example 218, (3S)-N-(3-[2-[(1-hydroxycyclopropyl)methoxy]-6-(morpholin-4-yl)pyridin-4-yl]-4-methylphenyl)-3-(2,2,2-trifluoroethyl)pyrrolidine-1-carboxamide]
 | 10 to 100 | Cc1cc(F)c(NC(=O)N2CCC(F)(F)CC2)cc1-c1cc(OCCO)nc(N2CCOCC2)c1 [Example 20, 4,4-difluoro-N-[2-fluoro-5-[2-(2-hydroxyethoxy)-6-(morpholin-4-yl)pyridin-4-yl]-4-methylphenyl]piperidine-1-carboxamide]
 | < 10 | Cc1ccc(NC(=O)N2CC[C@H](OC(C)(F)F)C2)cc1-c1cc(OCCO)nc(N2CCOCC2)c1 [Example 140, (3S)-3-(1,1-difluoroethoxy)-N-[3-[2-(2-hydroxyethoxy)-6-(morpholin-4-yl)pyridin-4-yl]-4-methylphenyl]pyrrolidine-1-carboxamide]
 | < 10 | Cc1ccc(NC(=O)N2CC=C(CC(F)(F)F)C2)cc1-c1cc(OC[C@@H](C)O)nc(N2CCOCC2)c1 [Example 222, (R)-N-(3-(2-(2-hydroxypropoxy)-6-morpholinopyridin-4-yl)-4-methylphenyl)-3-(2,2,2-trifluoroethyl)-2,5-dihydro-1H-pyrrole-1-carboxamide]
 | < 10 | Cc1ccc(NC(=O)N2CCC3(CCC3(F)F)C2)cc1-c1cc(OCCO)nc(N2CCOCC2)c1 (single isomer, unassigned) [Example 121, 1,1-difluoro-N-[3-[2-(2-hydroxyethoxy)-6-(morpholin-4-yl)pyridin-4-yl]-4-methylphenyl]-6-azaspiro[3.4]octane-6-carboxamide]
 | < 10 | Cc1ccc(NC(=O)N2CCC(CC(F)(F)F)C2)cc1-c1cc(O[C@H]2CCN(C)C2)nc(N2CCOCC2)c1 (stereo partly drawn) [Example 195, N-(4-methyl-3-(2-(((S)-1-methylpyrrolidin-3-yl)oxy)-6-morpholinopyridin-4-yl)phenyl)-3-(2,2,2-trifluoroethyl)pyrrolidine-1-carboxamide]
 | < 10 | Cc1ccc(NC(=O)N2CC[C@@H](CC(F)(F)F)C2)cc1-c1cc(O[C@@H]2CC[C@H](O)C2)nc(N2CCOCC2)c1 [Example 210, (3S)-N-[3-(2-[[(1R,3S)-3-hydroxycyclopentyl]oxy]-6-(morpholin-4-yl)pyridin-4-yl)-4-methylphenyl]-3-(2,2,2-trifluoroethyl)pyrrolidine-1-carboxamide]
 | < 10 | Cc1cc(F)c(NC(=O)N2CC=C(C(F)(F)C(F)(F)F)C2)cc1-c1cc(OCCO)nc(N2CCOCC2)c1 [Example 79, N-[2-fluoro-5-[2-(2-hydroxyethoxy)-6-(morpholin-4-yl)pyridin-4-yl]-4-methylphenyl]-3-(1,1,2,2,2-pentafluoroethyl)-2,5-dihydropyrrole-1-carboxamide]
 | < 10 | Cc1cc(F)c(NC(=O)N2CC/C(=C\C(F)(F)F)C2)cc1-c1cc(OCCO)nc(N2CCOCC2)c1 [Example 93, (E)-N-(2-fluoro-5-(2-(2-hydroxyethoxy)-6-morpholinopyridin-4-yl)-4-methylphenyl)-3-(2,2,2-trifluoroethylidene)pyrrolidine-1-carboxamide]
 | < 10 | Cc1ccc(NC(=O)N2CCC(CC(F)(F)F)C2)cc1-c1cc(O[C@H]2CCNC2)nc(N2CCOCC2)c1 (stereo partly drawn) [Example 201, N-(4-methyl-3-(2-morpholino-6-((S)-pyrrolidin-3-yloxy)pyridin-4-yl)phenyl)-3-(2,2,2,- trifluoroethyl)pyrrolidine-1-carboxamide]
